Assay results as given in patent US20250018047A1, “METHODS AND COMPOSITIONS FOR TARGETED PROTEIN DEGRADATION” (Ranok Therapeutics (Hangzhou) Co. Ltd., priority 2021, published 2025).

What was measured:
KRAS(G12D)/SOS1 = biological target: T1, KRAS(G12D)/SOS1 (Homo sapiens, UniProt P01116, G12D); assay: KRAS(G12D)/SOS1 homogeneous time-resolved fluorescence (HTRF) assay; assay type: binding; settings: absence of GTP, 4° C. for 3 hr
T1 construct: purchased Cisbio 63ADK000CB16PEG
Description: The test compound was mixed and incubated with reaction components, incubated in a sealed plate at 4° C. for 3 hr and fluorescence was measured using a PerkinElmer Envision plate reader.

[1] = tested on: AsPC-1 human pancreatic adenocarcinoma; assay: CellTiter-Glo cancer cell line proliferation assay, AsPC-1; assay type: cell-based; settings: Homo sapiens, ASPC1, 24 hr
Description: (§1) Cell lines were cultured according to ATCC and recommendations.
(§2) CellTiter-Glo® Reagent Cancer Cell Line Proliferation Assays
(§3) Cells were plated in 96-well tissue culture plates at 4,000 cells/well and incubated at 37° C./5% CO2 for 24 hr in 100 μl of media. […] Cells were then treated with test compounds at various concentrations with a final concentration of 0.5% DMSO/well, and then incubated at 37° C./5% CO2 for 24 hr. 100 μl of CellTiter-Glo® Reagent (Promega Corporation, Madison, WI) was added to each well and processed according manufacturer's protocol. Results were analyzed and IC50-values were calculated in GraphPad 7 software.

[2] = tested on: A-427 human lung carcinoma; assay: CellTiter-Glo cancer cell line proliferation assay, A-427; assay type: cell-based; settings: Homo sapiens, A-427, 24 hr, read-out: A427 at 24 hrs, IC50
Description: as §1, §2, §3

KRAS(G12D) = biological target: T2, KRAS(G12D) (Homo sapiens, UniProt P01116, G12D); assay: SW1990 WB assay (degradation DC50, Dmax); assay type: cell-based; settings: Western blot, SW1990 cells
T2 construct: endogenous in cells; host or cells: SW1990
T2 sequence (P01116 1-188 isoform P01116-2 G12D): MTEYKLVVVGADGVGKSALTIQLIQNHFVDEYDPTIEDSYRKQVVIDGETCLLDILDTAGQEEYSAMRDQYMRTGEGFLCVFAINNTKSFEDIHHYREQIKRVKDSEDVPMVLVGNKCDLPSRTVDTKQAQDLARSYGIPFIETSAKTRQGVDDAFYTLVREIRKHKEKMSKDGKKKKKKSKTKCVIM

T1 sequence (P01116 1-188 isoform P01116-2 G12D): as above

Compound	IC50 (KRAS(G12D)/SOS1) [µM]	IC50 [1] [µM]	IC50 [2] [µM]	DC50 (KRAS(G12D)) [µM]	Dmax (KRAS(G12D)) [%]
CN1C[C@H](N2CCN(Cc3ccc4c(c3)C(=O)N(C3CCC(=O)NC3=O)C4=O)CC2)C[C@@H]1COc1nc(N2CC3CCC(C2)N3)c2cnc(-c3cc(O)cc4ccccc34)c(F)c2n1 (some centres unmarked) [Compound 36]	< 0.1	> 1	> 1		
O=C1CCC(N2C(=O)c3ccc(N4CCC(CN5CCN(CC6(COc7nc(N8CC9CCC(C8)N9)c8cnc(-c9cc(O)cc%10ccccc9%10)c(F)c8n7)CC6)CC5)CC4)cc3C2=O)C(=O)N1 (centres unmarked) [Compound 47]	< 0.1	> 1	> 1		
CN1C[C@H](N2CCN(C(=O)C3CCN(c4ccc5c(c4)C(=O)N(C4CCC(=O)NC4=O)C5=O)CC3)CC2)C[C@@H]1COc1nc(N2CC3CCC(C2)N3)c2cnc(-c3cc(O)cc4ccccc34)c(F)c2n1 (some centres unmarked) [Compound 37]	< 0.1	> 1	> 1		
C#Cc1cccc2cccc(-c3ncc4c(N5CC6CCC(C5)N6)nc(OC[C@H]5C[C@@H](N6CCN(C[C@H]7CC[C@H](Nc8ccc9c(c8)C(=O)N(C8CCC(=O)NC8=O)C9=O)CC7)CC6)CN5C)nc4c3F)c12 (some centres unmarked) [Compound 77]	< 0.1	> 1	> 1		
CN1C[C@H](N2CCN(CC3CCN(c4cccc5c4C(=O)N(C4CCC(=O)NC4=O)C5=O)CC3)CC2)C[C@@H]1COc1nc(N2CC3CCC(C2)N3)c2cnc(-c3cc(O)cc4ccccc34)c(F)c2n1 (some centres unmarked) [Compound 35]	< 0.1	> 1	> 1		
C#Cc1cccc2cc(O)cc(-c3ncc4c(N5CC6CCC(C5)N6)nc(OCC5(CN6CCN(CC7CCN(c8cc9c(cc8F)C(=O)N(C8CCC(=O)NC8=O)C9)CC7)CC6)CC5)nc4c3F)c12 (centres unmarked) [Compound 90]		< 0.1	< 0.1		
C#Cc1c(F)ccc2cc(O)cc(-c3ncc4c(N5CC6CCC(C5)N6)nc(OCC5(CN6CCN(CC7CCN(c8ccc9c(c8)C(=O)N(C8CCC(=O)NC8=O)C9=O)CC7)CC6)CC5)nc4c3F)c12 (centres unmarked) [Compound 59]	< 0.1	0.1 to 1	0.1 to 1		
C#Cc1c(F)ccc2cc(O)cc(-c3ncc4c(N5CC6CCC(C5)N6C(=O)CC)nc(OCC5(CN6CCN(CC7CCN(c8ccc9c(c8)CN(C8CCC(=O)NC8=O)C9=O)CC7)CC6)CC5)nc4c3F)c12 (centres unmarked) [Compound 91]		> 1	> 1	> 1	< 10
C#Cc1cccc2cc(O)cc(-c3ncc4c(N5CC6CCC(C5)N6)nc(OCC5(CN6CCN(CC7CCN(c8ccc9c(c8)CN(C8CCC(=O)N(C)C8=O)C9=O)CC7)CC6)CC5)nc4c3F)c12 (centres unmarked) [Compound 71]	< 0.1		0.1 to 1	> 1	10 to 50
COc1nc(-c2cc(O)cc3ccccc23)c(F)c2nc(OCC3(CN4CCN(CC5CCN(c6ccc7c(c6)C(=O)N(C6CCC(=O)NC6=O)C7=O)CC5)CC4)CC3)nc(N3CC4CCC(C3)N4)c12 (centres unmarked) [Compound 66]	< 0.1	0.1 to 1	0.1 to 1		
C#Cc1cccc2cccc(-c3ncc4c(N5CC6CCC(C5)N6)nc(OCC5(CN6CCN(C(=O)C7CCN(c8ccc9c(c8)CN(C8CCC(=O)NC8=O)C9=O)CC7)CC6)CC5)nc4c3F)c12 (centres unmarked) [Compound 51]	< 0.1	> 1	> 1		
O=C1CCC(N2Cc3cc(CN4CCN(CC5(COc6nc(N7CC8CCC(C7)N8)c7cnc(-c8cc(O)cc9ccccc89)c(F)c7n6)CC5)CC4)ccc3C2=O)C(=O)N1 (centres unmarked) [Compound 40]	< 0.1	> 1	> 1		
O=C1CCC(N2C(=O)c3ccc(CN4CCN([C@H]5CN6CCC[C@@]6(COc6nc(N7CC8CCC(C7)N8)c7cnc(-c8cc(O)cc9ccccc89)c(F)c7n6)C5)CC4)cc3C2=O)C(=O)N1 (some centres unmarked) [Compound 50]	< 0.1	> 1	> 1		
C#Cc1cccc2cc(O)cc(-c3ncc4c(N5CC6CCC(C5)N6)nc(OCC5(CN6CCN(CC7CCN(CC(=O)N[C@@H](C(=O)N8C[C@@H](O)C[C@@H]8C(=O)NCc8ccc(-c9scnc9C)cc8)C(C)(C)C)CC7)CC6)CC5)nc4c3F)c12 [Compound 82]		> 1	> 1		
C#Cc1cccc2cccc(-c3ncc4c(N5CC6CCC(C5)N6)nc(OC[C@H]5CC[C@@H](CN6CCN(CC7CCC(Nc8ccc9c(c8)C(=O)N(C8CCC(=O)NC8=O)C9=O)CC7)CC6)N5C)nc4c3F)c12 (some centres unmarked) [Compound 79]	< 0.1	> 1	> 1		
O=C1CCC(N2C(=O)c3ccc(CN4CCN(CC5(COc6nc(N7CC8CCC(C7)N8)c7cnc(-c8cc(O)cc9ccccc89)c(F)c7n6)CC5)CC4)cc3C2=O)C(=O)N1 (centres unmarked) [Compound 41]	< 0.1	> 1	> 1		

Compound	IC50 (KRAS(G12D)/SOS1) [µM]	IC50 [1] [µM]	IC50 [2] [µM]	DC50 (KRAS(G12D)) [µM]	Dmax (KRAS(G12D)) [%]
C#Cc1c(F)ccc2cc(O)cc(-c3ncc4c(N5CC6CCC(C5)N6)nc(OCC5(CN6CCN(C7CCN(c8ccc9c(c8)CN(C8CCC(=O)NC8=O)C9=O)CC7)CC6)CC5)nc4c3F)c12 (centres unmarked) [Compound 104]	< 0.1	0.1 to 1		< 0.1	> 50
C#Cc1c(F)ccc2cc(O)cc(-c3ncc4c(N5CC6CCC(C5)N6)nc(OCC5(CN6CCC(CN7CCC(c8ccc9c(c8)CN(C8CCC(=O)NC8=O)C9=O)CC7)CC6)CC5)nc4c3F)c12 (centres unmarked) [Compound 111]	< 0.1			< 0.1	> 50
CN1C[C@H](N2CCN(CC3CCN(c4ccc5c(c4)C(=O)N(C4CCC(=O)NC4=O)C5=O)CC3)CC2)C[C@@H]1COc1nc(N2CC3CCC(C2)N3)c2cnc(-c3cc(O)cc4ccccc34)c(F)c2n1 (some centres unmarked) [Compound 34]	< 0.1	> 1	> 1		
O=C1CCC(N2C(=O)c3ccc(N4CCC(C(=O)N5CCN(CC6(COc7nc(N8CC9CCC(C8)N9)c8cnc(-c9cc(O)cc%10ccccc9%10)c(F)c8n7)CC6)CC5)CC4)cc3C2=O)C(=O)N1 (centres unmarked) [Compound 39]	< 0.1	> 1	> 1		
C#Cc1cccc2cccc(-c3ncc4c(N5CC6CCC(C5)N6)nc(OCC5(CN6CCN(CC7CCN(c8ccc9c(c8)C(=O)N(C8CCC(=O)NC8=O)C9=O)CC7)CC6)CC5)nc4c3F)c12 (centres unmarked) [Compound 48]	< 0.1	> 1	> 1		
CN1C[C@H](N2CCN(C(=O)C3CCN(c4ccc5c(c4)CN(C4CCC(=O)NC4=O)C5=O)CC3)CC2)C[C@@H]1COc1nc(N2CC3CCC(C2)N3)c2cnc(-c3cc(O)cc4ccccc34)c(F)c2n1 (some centres unmarked) [Compound 44]	< 0.1	> 1	> 1		
C#Cc1c(F)ccc2cc(O)cc(-c3ncc4c(N5CCN(C(=O)CC)[C@@H](CC#N)C5)nc(OCC5(CN6CCN(CC7CCN(c8ccc9c(c8)CN(C8CCC(=O)NC8=O)C9=O)CC7)CC6)CC5)nc4c3F)c12 (some centres unmarked) [Compound 97]	< 0.1	> 1	> 1		
C#Cc1c(F)ccc2cc(O)cc(-c3nc(OC)c4c(N5CC6CCC(C5)N6)nc(OCC5(CN6CCN(C7CCN(c8ccc9c(c8)CN(C8CCC(=O)NC8=O)C9=O)CC7)CC6)CC5)nc4c3F)c12 (centres unmarked) [Compound 112]	< 0.1			< 0.1	
C#Cc1cccc2cc(O)cc(-c3ncc4c(N5CC6CCC(C5)N6)nc(OCC5(CN6CCN(CC7CCN(c8ccc9c(c8)C(=O)N(C8CCC(=O)NC8=O)C9=O)CC7)CC6)CC5)nc4c3F)c12 (centres unmarked) [Compound 56]	< 0.1		0.1 to 1	< 0.1	> 50
CN1C[C@H](N2CCC(C(=O)N3CCN(c4ccc5c(c4)C(=O)N(C4CCC(=O)NC4=O)C5=O)CC3)CC2)C[C@@H]1COc1nc(N2CC3CCC(C2)N3)c2cnc(-c3cc(O)cc4ccccc34)c(F)c2n1 (some centres unmarked) [Compound 46]	< 0.1	> 1	> 1		
C#Cc1cccc2cc(O)cc(-c3ncc4c(N5CC6CCC(C5)N6)nc(OCC5(CN6CCN(C(=O)N7CCN(c8ccc9c(c8)CN(C8CCC(=O)NC8=O)C9=O)CC7)CC6)CC5)nc4c3F)c12 (centres unmarked) [Compound 88]		0.1 to 1	> 1		
C#Cc1c(F)ccc2cc(O)cc(-c3nc(OC)c4c(N5CCN(C(=O)CC)[C@H](CC#N)C5)nc(OCC5(CN6CCN(CC7CCN(c8ccc9c(c8)CN(C8CCC(=O)NC8=O)C9=O)CC7)CC6)CC5)nc4c3F)c12 (some centres unmarked) [Compound 92]	< 0.1	> 1	> 1		
O=C1CCC(N2Cc3cc(N4CCN(CC5(COc6nc(N7CC8CCC(C7)N8)c7cnc(-c8cccc9cccc(Cl)c89)c(F)c7n6)CC5)CC4)ccc3C2=O)C(=O)N1 (centres unmarked) [Compound 80]	< 0.1	> 1	> 1		
C#Cc1c(F)ccc2cc(O)cc(-c3ncc4c(N5CC6CCC(C5)N6)nc(OCC5(CN6CCC(N7CCC(c8ccc9c(c8)CN(C8CCC(=O)NC8=O)C9=O)CC7)CC6)CC5)nc4c3F)c12 (centres unmarked) [Compound 107]	< 0.1	< 0.1		< 0.1	
C#Cc1c(F)ccc2cc(O)cc(-c3ncc4c(N5CC6CCC(C5)N6)nc(OCC5(CN(C)CC6CCN(c7ccc8c(c7)C(=O)N(C7CCC(=O)NC7=O)C8)CC6)CC5)nc4c3F)c12 (centres unmarked) [Compound 89]		> 1	> 1		
O=C1CCC(N2C(=O)c3cccc(N4CCC(CN5CCN(CC6(COc7nc(N8CC9CCC(C8)N9)c8cnc(-c9cc(O)cc%10ccccc9%10)c(F)c8n7)CC6)CC5)CC4)c3C2=O)C(=O)N1 (centres unmarked) [Compound 42]	< 0.1	> 1	> 1		
